Test results taken from patent US20250145606A1 (Arcus Biosciences, Inc., priority 2023, published 2025).
Where two headings read alike, the source gives them in different places.

Columns and labels:
c-Kit = c-Kit (Homo sapiens (Human), UniProt P10721); test: Inhibition of c-Kit kinase activity (HTRF KinEASE-TK); type: biochemical; details: biochemical
Summary of the method: (§1)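 Human kinases were preincubated 1 h at rt with a 22-point 1:2 compound titration, then run 120 min at rt with biotinylated TK peptide and ATP (2× mix: c-Kit 16 μM, PDGFRα 1 μM, PDGFRβ 40 μM, CSF1R 20 μM). Phosphopeptide was read by HTRF TR-FRET (665/620 nm), and IC50s came from 4-parameter fits.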

FLT3 = FLT3 (Homo sapiens (Human), UniProt P36888); test: Inhibition of FLT3 kinase activity (HTRF KinEASE-TK); type: biochemical; details: biochemical
Sequence of FLT3 (P36888 27-993): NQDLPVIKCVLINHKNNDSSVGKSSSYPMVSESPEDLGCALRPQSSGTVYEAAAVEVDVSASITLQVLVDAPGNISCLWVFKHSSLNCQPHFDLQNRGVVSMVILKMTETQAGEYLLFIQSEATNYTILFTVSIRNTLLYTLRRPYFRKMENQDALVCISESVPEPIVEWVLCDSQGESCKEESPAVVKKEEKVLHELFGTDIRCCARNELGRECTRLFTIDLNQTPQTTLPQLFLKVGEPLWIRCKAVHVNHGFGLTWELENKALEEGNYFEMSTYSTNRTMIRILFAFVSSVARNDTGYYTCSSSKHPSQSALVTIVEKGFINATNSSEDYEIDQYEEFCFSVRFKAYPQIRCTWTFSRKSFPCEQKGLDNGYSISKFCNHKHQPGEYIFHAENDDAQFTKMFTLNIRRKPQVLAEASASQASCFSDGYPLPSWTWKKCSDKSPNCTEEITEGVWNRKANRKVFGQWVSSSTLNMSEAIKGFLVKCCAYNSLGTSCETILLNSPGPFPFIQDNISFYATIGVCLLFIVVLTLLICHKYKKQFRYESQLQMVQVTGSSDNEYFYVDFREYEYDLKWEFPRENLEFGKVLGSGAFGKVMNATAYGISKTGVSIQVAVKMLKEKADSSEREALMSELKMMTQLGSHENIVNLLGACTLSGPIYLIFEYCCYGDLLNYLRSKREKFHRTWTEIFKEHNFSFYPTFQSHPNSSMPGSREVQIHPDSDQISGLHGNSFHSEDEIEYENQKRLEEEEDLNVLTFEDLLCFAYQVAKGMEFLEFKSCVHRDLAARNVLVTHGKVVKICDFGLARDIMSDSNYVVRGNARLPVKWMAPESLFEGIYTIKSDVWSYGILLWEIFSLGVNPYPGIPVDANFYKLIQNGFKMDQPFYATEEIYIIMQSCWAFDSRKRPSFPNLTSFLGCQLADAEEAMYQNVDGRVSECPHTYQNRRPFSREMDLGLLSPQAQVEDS
Summary of the method: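 FLT3 tyrosine kinase activity was measured with the HTRF KinEASE-TK kit by following phosphorylation of a biotinylated TK peptide. After the 45 min reaction, 10 μL of detection mix was added: 0.2 μM (2×) Streptavidin-XL665 and 2 μM (2×) TK-Antibody-Cryptate in detection buffer. After 60 min, TR-FRET was read on an Envision as the 665 nm/620 nm emission ratio with 320 nm excitation.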

[1] = system: Phospho-KIT (Y703) in M07e cells; test: Phospho-KIT (Y703) cellular assay in M07e cells; type: cell-based; details: M-07e
Summary of the method: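 Serum-starved M07e cells preincubated 50 min at 37° C with 11-point half-log compound titration, then stimulated 10 min with SCF at 90.9 ng/mL final. Fixed, permeabilized cells stained for phospho-KIT Y703 and read by flow cytometry (live-gated geometric mean); IC50 by 4-parameter fit normalized to DMSO and positive control.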

CSF1R = CSF1R (Homo sapiens (Human), UniProt P07333); test: Inhibition of CSF1R kinase activity (HTRF KinEASE-TK); details: biochemical
Sequence of CSF1R (P07333 20-972): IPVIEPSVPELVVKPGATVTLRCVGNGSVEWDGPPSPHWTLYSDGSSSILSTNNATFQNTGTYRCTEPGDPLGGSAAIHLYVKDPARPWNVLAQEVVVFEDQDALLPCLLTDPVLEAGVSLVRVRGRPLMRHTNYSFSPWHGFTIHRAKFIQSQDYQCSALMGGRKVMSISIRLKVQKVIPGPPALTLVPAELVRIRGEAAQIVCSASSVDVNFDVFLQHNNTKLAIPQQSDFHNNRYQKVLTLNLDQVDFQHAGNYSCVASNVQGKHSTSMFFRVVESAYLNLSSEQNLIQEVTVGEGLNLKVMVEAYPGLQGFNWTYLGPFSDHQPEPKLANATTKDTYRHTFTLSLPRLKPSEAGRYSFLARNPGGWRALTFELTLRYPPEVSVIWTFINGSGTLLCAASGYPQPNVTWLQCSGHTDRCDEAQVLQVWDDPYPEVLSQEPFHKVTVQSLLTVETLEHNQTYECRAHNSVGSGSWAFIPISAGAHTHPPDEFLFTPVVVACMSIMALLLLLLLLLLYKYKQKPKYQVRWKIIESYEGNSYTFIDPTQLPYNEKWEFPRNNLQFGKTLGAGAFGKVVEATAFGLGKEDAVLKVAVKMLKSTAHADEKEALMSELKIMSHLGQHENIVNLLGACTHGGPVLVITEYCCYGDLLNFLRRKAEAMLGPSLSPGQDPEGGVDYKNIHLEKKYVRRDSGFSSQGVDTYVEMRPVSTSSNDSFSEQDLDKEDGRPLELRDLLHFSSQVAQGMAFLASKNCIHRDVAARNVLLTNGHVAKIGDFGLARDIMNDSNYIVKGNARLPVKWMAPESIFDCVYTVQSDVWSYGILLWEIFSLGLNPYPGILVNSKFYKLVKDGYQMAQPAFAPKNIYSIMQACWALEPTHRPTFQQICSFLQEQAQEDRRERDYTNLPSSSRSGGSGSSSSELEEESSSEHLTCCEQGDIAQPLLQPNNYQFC
Summary of the method: as §1

PDGFRα = PDGFRα (Homo sapiens (Human), UniProt P16234); test: Inhibition of PDGFRα kinase activity (HTRF KinEASE-TK); details: biochemical
Sequence of PDGFRα (P16234 24-1089): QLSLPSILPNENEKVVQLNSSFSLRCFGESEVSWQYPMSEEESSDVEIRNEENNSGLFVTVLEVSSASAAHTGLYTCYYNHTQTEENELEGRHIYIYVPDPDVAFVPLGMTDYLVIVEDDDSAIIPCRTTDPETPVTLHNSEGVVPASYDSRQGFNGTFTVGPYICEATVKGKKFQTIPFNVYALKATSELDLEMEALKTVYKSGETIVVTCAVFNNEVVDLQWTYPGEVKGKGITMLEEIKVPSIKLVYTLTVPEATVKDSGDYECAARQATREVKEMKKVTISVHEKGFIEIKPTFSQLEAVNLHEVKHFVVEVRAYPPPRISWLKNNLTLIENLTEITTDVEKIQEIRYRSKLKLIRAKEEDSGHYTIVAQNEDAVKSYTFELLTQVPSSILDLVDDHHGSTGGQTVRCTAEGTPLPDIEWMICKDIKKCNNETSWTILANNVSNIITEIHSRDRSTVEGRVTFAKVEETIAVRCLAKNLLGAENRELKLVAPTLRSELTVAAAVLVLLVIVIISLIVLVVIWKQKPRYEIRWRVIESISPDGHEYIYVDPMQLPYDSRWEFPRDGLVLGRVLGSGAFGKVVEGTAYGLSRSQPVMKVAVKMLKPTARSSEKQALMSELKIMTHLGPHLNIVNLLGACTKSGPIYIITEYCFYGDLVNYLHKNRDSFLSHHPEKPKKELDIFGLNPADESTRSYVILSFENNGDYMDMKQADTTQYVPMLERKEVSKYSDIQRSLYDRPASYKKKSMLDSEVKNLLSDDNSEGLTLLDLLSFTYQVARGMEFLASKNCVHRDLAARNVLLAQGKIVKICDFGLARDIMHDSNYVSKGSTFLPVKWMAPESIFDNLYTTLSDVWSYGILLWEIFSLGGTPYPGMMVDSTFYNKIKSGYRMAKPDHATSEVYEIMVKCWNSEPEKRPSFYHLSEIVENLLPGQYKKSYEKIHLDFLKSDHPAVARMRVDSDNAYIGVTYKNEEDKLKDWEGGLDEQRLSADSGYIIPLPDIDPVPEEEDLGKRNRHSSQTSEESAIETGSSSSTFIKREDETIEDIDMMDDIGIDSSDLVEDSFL
Summary of the method: as §1

PDGFRβ = PDGFRβ (Homo sapiens (Human), UniProt P09619); test: Inhibition of PDGFRβ kinase activity (HTRF KinEASE-TK); details: biochemical
Sequence of PDGFRβ (P09619 33-1106): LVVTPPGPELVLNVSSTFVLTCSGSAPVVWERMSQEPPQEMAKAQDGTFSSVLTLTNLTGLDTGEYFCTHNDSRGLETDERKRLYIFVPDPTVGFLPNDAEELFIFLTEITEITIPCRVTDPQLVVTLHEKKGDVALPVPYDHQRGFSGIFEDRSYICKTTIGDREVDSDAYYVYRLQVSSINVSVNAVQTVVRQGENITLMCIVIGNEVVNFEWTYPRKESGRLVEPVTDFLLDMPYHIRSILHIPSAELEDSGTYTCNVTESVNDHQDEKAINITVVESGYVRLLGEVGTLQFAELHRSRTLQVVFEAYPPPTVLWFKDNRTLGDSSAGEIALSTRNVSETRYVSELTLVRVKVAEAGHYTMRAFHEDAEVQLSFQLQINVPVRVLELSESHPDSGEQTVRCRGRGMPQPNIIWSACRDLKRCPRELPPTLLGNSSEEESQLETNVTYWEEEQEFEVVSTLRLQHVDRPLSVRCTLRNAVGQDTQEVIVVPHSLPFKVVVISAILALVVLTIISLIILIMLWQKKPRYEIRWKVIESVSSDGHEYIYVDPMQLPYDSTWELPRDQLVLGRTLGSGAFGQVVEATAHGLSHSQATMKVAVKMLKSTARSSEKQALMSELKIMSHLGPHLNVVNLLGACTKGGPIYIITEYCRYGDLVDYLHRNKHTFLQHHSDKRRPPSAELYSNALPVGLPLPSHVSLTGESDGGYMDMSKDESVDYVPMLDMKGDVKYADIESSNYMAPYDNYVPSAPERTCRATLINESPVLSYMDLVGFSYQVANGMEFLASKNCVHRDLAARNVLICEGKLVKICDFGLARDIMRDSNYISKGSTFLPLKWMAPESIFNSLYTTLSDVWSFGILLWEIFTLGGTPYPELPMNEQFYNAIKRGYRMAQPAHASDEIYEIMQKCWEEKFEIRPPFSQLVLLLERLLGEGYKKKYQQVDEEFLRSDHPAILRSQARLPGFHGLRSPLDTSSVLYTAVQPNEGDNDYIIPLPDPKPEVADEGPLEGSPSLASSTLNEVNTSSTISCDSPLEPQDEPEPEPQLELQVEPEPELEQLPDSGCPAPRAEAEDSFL
Summary of the method: as §1

[2] = Phospho-KIT (Y703), M07e cells, read-out: M07e Cell IC50

Sequence of c-Kit (P10721 26-976): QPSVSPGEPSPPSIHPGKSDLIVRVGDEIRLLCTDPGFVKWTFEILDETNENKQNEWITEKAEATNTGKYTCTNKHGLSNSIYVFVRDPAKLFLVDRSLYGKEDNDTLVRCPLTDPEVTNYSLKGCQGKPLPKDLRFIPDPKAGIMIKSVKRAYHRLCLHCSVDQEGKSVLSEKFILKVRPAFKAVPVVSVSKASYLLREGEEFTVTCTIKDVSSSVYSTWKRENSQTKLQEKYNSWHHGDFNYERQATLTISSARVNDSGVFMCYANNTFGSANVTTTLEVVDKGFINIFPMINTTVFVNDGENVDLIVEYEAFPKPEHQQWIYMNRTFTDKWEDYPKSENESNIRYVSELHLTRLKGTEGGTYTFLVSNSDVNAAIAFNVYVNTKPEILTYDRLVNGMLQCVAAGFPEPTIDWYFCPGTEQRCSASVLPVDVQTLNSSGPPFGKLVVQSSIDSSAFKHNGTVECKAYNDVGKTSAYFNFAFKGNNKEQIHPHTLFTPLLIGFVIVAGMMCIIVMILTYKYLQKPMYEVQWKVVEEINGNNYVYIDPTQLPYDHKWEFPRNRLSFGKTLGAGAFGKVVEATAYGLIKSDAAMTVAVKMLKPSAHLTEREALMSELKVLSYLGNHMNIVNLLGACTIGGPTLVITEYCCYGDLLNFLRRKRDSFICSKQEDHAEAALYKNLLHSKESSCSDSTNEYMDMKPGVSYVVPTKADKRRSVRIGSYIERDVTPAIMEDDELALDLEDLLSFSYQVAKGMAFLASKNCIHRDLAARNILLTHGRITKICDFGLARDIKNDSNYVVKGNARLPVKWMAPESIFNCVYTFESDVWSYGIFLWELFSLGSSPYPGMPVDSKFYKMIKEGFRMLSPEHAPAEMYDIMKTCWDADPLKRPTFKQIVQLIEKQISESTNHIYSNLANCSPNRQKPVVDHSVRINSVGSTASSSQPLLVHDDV

| Compound | IC50 (c-Kit) [µM] | IC50 (FLT3) [µM] | IC50 ([1]; phospho-KIT (Y703), SCF-stimulated M07e cells, read-out: M07e Cell IC50) [µM] | IC50 (CSF1R) [µM] | IC50 (PDGFRα) [µM] | IC50 (PDGFRβ) [µM] | IC50 (c-Kit; HTRF KinEASE-TK) [µM] | IC50 (FLT3; HTRF KinEASE-TK) [µM] | IC50 [1, 2] [µM] | IC50 (CSF1R; HTRF KinEASE-TK) [µM] | IC50 (PDGFRα; HTRF KinEASE-TK) [µM] | IC50 (PDGFRβ; HTRF KinEASE-TK) [µM] | IC50 ([1]; M07e cells, read-out: Phospho-KIT (Y703) cellular IC50) [µM] |
| --- | --- | --- | --- | --- | --- | --- | --- | --- | --- | --- | --- | --- | --- |
| Cc1cc(F)c(C(=O)Nc2ccc(CC(F)(F)F)cn2)cc1NC(=O)c1cnc(N)s1 [Example 11, 2-Amino-N-[4-fluoro-2-methyl-5-[[5-(2,2,2-trifluoroethyl)pyridin-2-yl]carbamoyl]phenyl]-1,3-thiazole-5-carboxamide] | < 0.1 | > 1 | < 0.1 | 0.1 to 1 | 0.1 to 1 | < 0.1 |  |  |  |  |  |  |  |
| Cc1cc(F)c(C(=O)Nc2ccc(OC3CC3)c(C)n2)cc1NC(=O)c1cnc(N)s1 [Example 152, 2-Amino-N-[5-[(5-cyclopropyloxy-6-methylpyridin-2-yl)carbamoyl]-4-fluoro-2-methylphenyl]-1,3-thiazole-5-carboxamide] |  |  |  |  |  |  | < 0.1 | > 1 | < 0.1 | > 1 | 0.1 to 1 | 0.1 to 1 |  |
| Cc1cc(F)c(C(=O)Nc2ccc(Cl)cc2)cc1NC(=O)c1cnc(N)s1 [Example 231, 2-Amino-N-[5-[(4-chlorophenyl)carbamoyl]-4-fluoro-2-methylphenyl]-1,3-thiazole-5-carboxamide] |  |  |  |  |  |  | < 0.1 | > 1 | < 0.1 | 0.1 to 1 | 0.1 to 1 | 0.1 to 1 |  |
| COc1ccnc(NC(=O)c2cc(NC(=O)c3cnc(N)s3)c(C)cc2F)c1 [Example 189, 2-Amino-N-[4-fluoro-5-[(4-methoxypyridin-2-yl)carbamoyl]-2-methylphenyl]-1,3-thiazole-5-carboxamide] |  |  |  |  |  |  | < 0.1 | > 1 | < 0.1 | 0.1 to 1 | > 1 | 0.1 to 1 |  |
| Cc1cc(F)c(C(=O)Nc2ccccn2)cc1NC(=O)c1cnc(N)s1 [Example 132, 2-Amino-N-[4-fluoro-2-methyl-5-(pyridin-2-ylcarbamoyl)phenyl]-1,3-thiazole-5-carboxamide] |  |  |  |  |  |  | < 0.1 | > 1 | < 0.1 | > 1 | > 1 | > 1 |  |
| Nc1ncc(C(=O)Nc2cc(C(=O)Nc3ccc(OC(F)F)cn3)c(F)cc2F)s1 [Example 219, 2-Amino-N-[5-[[5-(difluoromethoxy)pyridin-2-yl]carbamoyl]-2,4-difluorophenyl]-1,3-thiazole-5-carboxamide] |  |  |  |  |  |  | < 0.1 | > 1 | < 0.1 | > 1 | > 1 | > 1 |  |
| COC1(c2ccc(NC(=O)c3cc(NC(=O)c4cnc(N)s4)c(C)cc3F)nc2)CC1 [Example 260, 2-Amino-N-[4-fluoro-5-[[5-(1-methoxycyclopropyl)pyridin-2-yl]carbamoyl]-2-methylphenyl]-1,3-thiazole-5-carboxamide] |  |  |  |  |  |  | < 0.1 | > 1 |  | 0.1 to 1 | > 1 | 0.1 to 1 | < 0.1 |
| Cc1ncc(C(=O)Nc2cc(C(=O)Nc3ccc(C4(C(F)(F)F)CC4)cn3)c(F)cc2C)s1 [Example 67] |  |  |  |  |  |  | < 0.1 | > 1 | < 0.1 | > 1 | > 1 | 0.1 to 1 |  |
| Cc1cc(F)c(C(=O)Nc2cc3n(n2)CCC3)cc1NC(=O)c1cnc(N)s1 [Example 156, 2-Amino-N-[5-(5,6-dihydro-4H-pyrrolo[1,2-b]pyrazol-2-ylcarbamoyl)-4-fluoro-2-methylphenyl]-1,3-thiazole-5-carboxamide] |  |  |  |  |  |  | < 0.1 | > 1 | < 0.1 | > 1 | > 1 | 0.1 to 1 |  |
